# Experimental data: US20240277732A1, “COMPOSITIONS AND METHODS FOR TREATING BRAIN-GUT DISORDERS” (Enterin, Inc., priority 2018, published 2024)
# How the values were obtained:
# [1] = Intranasal pharmacokinetics in plasma; format: in vivo, Sprague Dawley rats; conditions: Sprague-Dawley, rat, in vivo
# Source text: The purpose of this example was to evaluate the in vivo distribution and function of aminosterols, such as Aminosterol 1436 and squalamine, following intranasal administration. This experiment relates to the amount of drug needed to obtain a therapeutic result, based on an IN route of administration. The results described below detail that aminosterols such as Aminosterol 1436 act at the level of the hypothalamus following in vivo administration, regardless of the route of administration.
# [2] = Brain distribution of radiolabeled Aminosterol 1436 after IV or ICV administration; format: in vivo; conditions: rats
# Source text: The purpose of this example was to evaluate the in vivo distribution of Aminosterol 1436 following intracerebroventricular (ICV) and intravenous (IV) administration to rats. ICV injection is an invasive injection technique of substances directly into the cerebrospinal fluid in cerebral ventricles to bypass the blood brain barrier. The results described below detail how aminosterols such as Aminosterol 1436 localize in the brain following in vivo administration, regardless of the route of administration.
# Radiolabeled Aminosterol 1436 was injected into rats by two different forms of administration: ICV and IV administration.
# [3] = Brain distribution, food intake and body weight after IP or ICV administration; format: in vivo; conditions: 10 and 40 μg ICV, 5 mg/kg IP
# Source text: The purpose of this example was to evaluate the in vivo distribution of the aminosterol Aminosterol 1436 following intraperitoneal administration (IP) and ICV administration, and to determine the impact the drug has on food intake and body weight when administered IP and ICV.
# Additional data regarding in vivo distribution and the effect of the route of administration for an aminosterol is shown in FIG. 7.
# This experiment is relevant as the areas of the brain where the aminosterol Aminosterol 1436 localized upon administration are known to control feeding behavior and appetite.
# [4] = Weight change after IP or IN administration; format: in vivo; conditions: mice
# Description: The purpose of this example was to evaluate and compare the impact on weight following administration of an aminosterol such as Aminosterol 1436 to mice via IP or IN.
# Mice were administered: (i) intraperitoneally 1 mg/kg or 10 mg/kg of Aminosterol 1436, (ii) intranasally 0.4 mg/kg of Aminosterol 1436, or (iii) a saline control administered IN. Weight of the mice was then measured for 10 days post-administration.
# [5] = PK profile IN versus IV bolus; format: in vivo; conditions: rat, 2 mg/kg IV bolus
# Source text: Thus, the amount of aminosterol in the bloodstream is too low to account for the observed pharmacological effect. This means that when administered IN, an aminosterol is having a pharmacological effect via a mechanism other than via plasma concentration of the drug.
smiles,measurement,setting,value
CC(C)[C@@H](CC[C@@H](C)[C@H]1CC[C@H]2[C@@H]3[C@H](O)C[C@H]4C[C@@H](NCCCNCCCCNCCCN)CC[C@]4(C)[C@H]3CC[C@]12C)OS(=O)(=O)O [Aminosterol 1436],blood levels after intranasal versus peripherally injected administration,[1],10 times
same,AUC_% Extrap_obs,[1]; 0.5 mg/kg,47.6%
same,AUClast/D,[1]; 0.5 mg/kg,18700 kg·ng·h/mL/mg
same,site of localization in brain,[2]; ICV administration,localized to the same regions of the brain
same,site of localization in brain,[2]; IV administration,localized in the hypothalamus
same,effect on food intake over 10 days,[3],significant impact on food intake
same,percent change in body weight,[3],decrease in body weight
same,weight change over 10 days,[4]; 0.4 mg/kg IN,decrease in the weight of the mice in an amount comparable to 10 mg/kg of intraperitoneally administered Aminosterol 1436
same,weight change over 10 days,[4]; 1 mg/kg IP,compared similarly to the intranasally administered saline control
same,exposure after IV bolus injection,[5],190 µg·h/mL
